# Test results from patent US20210077478A1, “METHOD OF COUNTERING RESPIRATORY DEPRESSION VIA ACTIVATION OF NEURONAL HETEROMERIC NICOTINIC ACETYLCHOLINE RECEPTORS” (THE GOVERNORS OF THE UNIVERSITY OF ALBERTA, priority 2017, published 2021).
# “Also recorded” adds a separate entry of the source. Like-named read-outs stand apart in the source and are kept apart here.
# Experiments:
# [1] = system: newborn rats; test: Fentanyl-induced respiratory depression in rat pups (postnatal day 3-4), plethysmography; assay type: in vivo
# [2] = system: adult rats; test: Baseline ventilation after drug alone, plethysmography in adult rats; assay type: in vivo, rat; conditions: for baseline minute ventilation: drug alone: A85380 0.03, Rivanicline 3, NS9283 10, PNU282987 1-15 mg/kg
# [3] = system: brainstem-spinal cord in vitro preparations; test: Brainstem-spinal cord in vitro preparation, respiratory rhythm (C4 / XII nerve recordings); parameters: species or system rat; conditions: for fR in the presence of the antagonist: antagonist 400 nM
# Method: Brainstem-spinal cord and medullary slice preparations were obtained from neonatal Sprague-Dawley rats. The rats were anesthetized with metofane, decerebrated, and the brainstem-spinal cord (BSSC) and medullary slice dissected (Smith et al., 1990; 1991). BSSC was continuously perfused with modified Krebs solution. A single rhythmic medullary slice was cut (500-650 μm thick) and continuously perfused with bathing solution. Inspiratory activity was recorded from the fourth ventral cervical nerve roots of BSSC or XII nerve rootlets of the medullary slice using an extracellular glass electrode.
# Neonatal (postnatal day 1-3) rats were anesthetized with metofane, decerebrated and the brainstem-spinal cord dissected as previously reported. The neuraxis was continuously perfused at 27°±1° C. (5 ml/min; chamber volume, 3 ml) with modified Kreb's solution that contained 128 mM NaCl, 3.0 mM KCl, 1.5 mM CaCl2, 1.0 mM MgCl2, 23.5 mM NaHCO3, 0.5 mM NaH2PO4, and 30 mM d-glucose equilibrated with 95% O2-5% CO2 (pH 7.4).
# A single transverse slice containing the preBötC and more caudal reticular formation regions was then cut (700 μm thick) from brainstem-spinal cord preparations perfused with a bathing solution identical to that used for B SSC preparation with the exception that the KCl concentration was increased to 9 mM to facilitate long-term generation of stable rhythm. Recordings from the fourth ventral cervical nerve roots of brainstem-spinal cord or hypoglossal nerve roots of medullary slice preparations were amplified, rectified, low-pass filtered, and recorded to a computer, using an analog-digital converter (Axon Instruments Digidata; Molecular Devices, Sunnyvale, Calif.) and data acquisition software (Axon Instruments AxoScope).
# [4] = system: medullary slice (preBötC and XII motoneurons); parameters: species or system rat
# [5] = system: newborn rats; test: Propofol-induced respiratory depression in newborn rats (P3); assay type: in vivo, rat
# Method: In a further experiment, A85380 (0.03 mg/kg, ip) and propofol (30 mg/kg, ip) were co-administered in newborn rats in vivo (P3). In the control group, vehicle (saline) was administered with 30 mg/kg propofol (FIG. 6A). […] Without being bound by any theory, targeting of α4β2 nAChRs may be a potent means of alleviating the effects of drugs (e.g. propofol) causing respiratory depression via GABAA receptor mechanisms in vivo.
# [6] = system: adult rats; conditions: rat, in vivo, sc, 0.06 mg/kg
# [7] = system: adult rats; test: Formalin test (licking and lifting) in adult rats; assay type: in vivo, rat
# [8] = system: P0 rat brainstem-spinal cord preparation with C2 hemisection; test: C2 hemisection spinal cord injury model, brainstem-spinal cord preparation, C4 recordings; conditions: A85380 25 nM bath
# Description: One of the primary causes of morbidity and mortality associated with spinal cord injury is loss of normal functioning of the respiratory musculature. This is caused by a reduced synaptic drive from respiratory rhythm generating centers onto respiratory spinal motoneurons. An in vitro newborn brainstem spinal cord rat model of spinal cord injury (Zimmer and Goshgarian, 2005) was used to test the efficacy of targeting α4β2 nAChRs to alleviate weak respiratory drive. […] Rectified and integrated signals were made from both C4 recordings from a P0 rat brainstem-spinal cord preparation showing the respiratory activity both contralateral (A: top traces) and ipsilateral (B: bottom traces) to one side C2 hemisection. There was a marked reduction in neural activity after the hemisection in ipsilateral nerve, but respiratory-like activity was still observed occasionally and was correlated with the respiratory activity on the contralateral nerve.
# [9] = system: rat pups; conditions: in vivo
# [10] = oral administration, compared with sazetidine-A (Kong et al. 2015); cited from earlier work
# [11] = system: adult rats; conditions: rat, in vivo, iv
# [12] = target: (α4)2(β2)3 receptors (Homo sapiens, UniProt P17787+P43681); conditions: Zwart et al., 2008; Carbone et al., 2009; cited from earlier work
# Sequence of (α4)2(β2)3 receptors (P43681 29-627 limits assumed): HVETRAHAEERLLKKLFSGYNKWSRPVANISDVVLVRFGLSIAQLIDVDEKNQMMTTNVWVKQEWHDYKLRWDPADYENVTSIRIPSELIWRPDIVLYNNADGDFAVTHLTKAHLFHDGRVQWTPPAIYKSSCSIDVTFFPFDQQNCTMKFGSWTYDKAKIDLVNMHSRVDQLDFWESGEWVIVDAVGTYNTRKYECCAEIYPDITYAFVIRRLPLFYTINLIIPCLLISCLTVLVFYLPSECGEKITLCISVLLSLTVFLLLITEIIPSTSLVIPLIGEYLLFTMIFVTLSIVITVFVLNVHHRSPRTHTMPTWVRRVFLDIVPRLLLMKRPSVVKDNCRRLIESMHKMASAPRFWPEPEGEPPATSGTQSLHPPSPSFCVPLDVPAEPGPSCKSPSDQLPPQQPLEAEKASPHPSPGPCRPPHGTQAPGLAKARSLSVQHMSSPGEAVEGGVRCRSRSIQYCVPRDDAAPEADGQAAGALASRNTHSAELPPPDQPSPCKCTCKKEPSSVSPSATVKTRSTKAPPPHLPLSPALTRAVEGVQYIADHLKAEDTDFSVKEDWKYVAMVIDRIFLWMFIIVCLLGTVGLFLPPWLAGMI
# Sequence of (α4)2(β2)3 receptors (P17787 26-502): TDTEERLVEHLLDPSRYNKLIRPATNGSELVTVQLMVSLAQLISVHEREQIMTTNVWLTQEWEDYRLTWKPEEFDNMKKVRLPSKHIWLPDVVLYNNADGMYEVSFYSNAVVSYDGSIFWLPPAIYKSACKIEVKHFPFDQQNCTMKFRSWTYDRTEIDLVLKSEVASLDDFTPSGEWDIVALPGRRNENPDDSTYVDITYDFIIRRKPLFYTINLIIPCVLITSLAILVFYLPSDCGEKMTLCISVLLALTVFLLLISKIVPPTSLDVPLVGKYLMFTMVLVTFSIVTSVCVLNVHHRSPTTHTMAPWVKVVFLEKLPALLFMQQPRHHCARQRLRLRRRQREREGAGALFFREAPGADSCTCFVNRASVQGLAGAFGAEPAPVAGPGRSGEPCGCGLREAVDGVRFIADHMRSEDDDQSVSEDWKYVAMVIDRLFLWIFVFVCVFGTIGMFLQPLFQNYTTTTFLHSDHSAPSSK
# [13] = target: (α4)3(β2)2 receptors (Homo sapiens, UniProt P17787+P43681); conditions: Zwart et al., 2008; Carbone et al., 2009; cited from earlier work
# Sequence of (α4)3(β2)2 receptors (P43681 29-627 limits assumed): as the sequence (P43681 29-627 limits assumed) above
# Sequence of (α4)3(β2)2 receptors (P17787 26-502): as the sequence (P17787 26-502) above
molecule,measurement,setting,value
"CN1CCCC1CCc1ccc(S)cc1 (racemic) [SIB 1553A, (±)-4-[2-((N-methyl)-2-pyrrolidinyl)ethyl]thiophenol]",SIB 1553A effects with DHβE co-administered,"[1]; DHβE 6 mg/kg co-administration with fentanyl, SIB 1553A 40 mg/kg",only partially blocked
same,fentanyl-induced respiratory depression with mecamylamine co-administered,"[1]; fentanyl 35 μg/kg + mecamylamine 6 mg/kg, SIB 1553A 40 mg/kg",had no effects
same,fentanyl-induced decrease in tidal volume (VT),"[1]; fentanyl 35 μg/kg, SIB 1553A 40 mg/kg sc",without marked effects
same,fentanyl-induced decrease in respiratory rate (fR),"[1]; fentanyl 35 μg/kg, SIB 1553A 40 mg/kg sc 7 min later",partially reversed
"c1cncc(OC[C@@H]2CCN2)c1 [A85380, 3-(2(s)-azetidinylmethoxy) pyridine]",baseline minute ventilation,[2],97.8±3.1 % of control
same,baseline fR,[3],increased baseline fR
same,baseline respiratory amplitude,[3],without marked effects
same,baseline respiratory frequency,[3],increased baseline respiratory frequency
same,concentrations at which baseline fR is increased,[3],above 5 nM
same,ethanol and pentobarbital-induced respiratory depression,[3],alleviated
same,reversal of DAMGO-induced respiratory depression (decrease in fR and burst area),[3],clear reversal
same,reversal of DAMGO-induced respiratory depression (frequency and amplitude),[3],clear reversal
same,weak respiratory rhythm and XII motor output,[3],"increased respiratory frequency, amplitude and bursting duration"
same,DAMGO-induced suppression of fR,[4],alleviated
same,DAMGO-induced suppression of respiratory frequency and amplitude,[4],alleviated
same,baseline respiratory burst area,[4],decreased baseline respiratory burst area
same,baseline respiratory frequency,[4],increased respiratory frequency; also recorded: increased fR
same,loss of respiratory drive and motor output in low potassium,[4],potently reversed the loss of respiratory drive and motor output
same,respiratory amplitude,[4],decreased the respiratory amplitude
same,propofol-induced respiratory depression,[5]; A85380 0.03 mg/kg ip co-administered with propofol 30 mg/kg ip,dramatically prevented
same,"paw withdrawal latency to thermal stimuli, baseline",[6],marked increase in paw withdrawal latency
same,"nocifensive response 20-40 minutes post formalin, baseline","[7]; rat, in vivo, sc, 0.06 mg/kg",decreased nocifensive response
same,ipsilateral respiratory amplitude after C2 hemisection,[8],partially increased
same,respiratory frequency after C2 hemisection,[8],increased the respiratory frequency
same,significant alteration of baseline VE,[9],Neither
"C[C@@H](NC(=O)[C@@H](N)Cc1ccc(O)cc1)C(=O)NCC(=O)N(C)[C@@H](Cc1ccccc1)C(=O)NCCO [DAMGO, [D-Ala2, NMe-Phe4, Gly-ol5]-enkephalin]",respiratory depression by DAMGO (fR and burst area),[3],suppressed fR and burst area
same,effect of DAMGO on fR,[4],caused a suppression of fR
same,effect of DAMGO on respiratory frequency and amplitude,[4],induced suppression of respiratory frequency and amplitude
CCN1C[C@]2(COC(=O)c3ccccc3N3C(=O)C[C@H](C)C3=O)CC[C@H](OC)[C@@]34[C@@H]5C[C@H]6[C@H](OC)[C@@H]5[C@](O)(C[C@@H]6OC)[C@](O)([C@@H](OC)[C@H]23)[C@@H]14 [MLA],fR in the presence of the antagonist,[3],fR was slower
"N#Cc1cccc(-c2nc(-c3cccnc3)no2)c1 [NS9283, 3-[3-(3-Pyridinyl)-1,2,4-oxadiazol-5yl]benzonitrile]",baseline minute ventilation,[2],103.3±4.2 % of control
same,baseline respiratory amplitude,"[3]; C4 discharge, A85380 25 nM, Rivanicline 0.5 μM, NS9283 15 μM",without marked effects
same,baseline respiratory frequency,"[3]; C4 discharge, bath A85380 25 nM, Rivanicline 0.5 μM, NS9283 15 μM, PNU282987 up to 20 μM (Example 3)",increased baseline respiratory frequency
same,reversal of DAMGO-induced respiratory depression (frequency and amplitude),"[3]; bath after DAMGO: A85380 25 nM, Rivanicline 0.5 μM, NS9283 15 μM, PNU282987 1-20 μM (Example 3)",clear reversal
O=C(N[C@H]1CN2CCC1CC2)c1ccc(Cl)cc1 [PNU282987],baseline minute ventilation,[2],102.9±4.1 % of control
same,baseline fR,[3],very modest increase in fR
same,baseline respiratory frequency,[3],very modest increase in respiratory frequency
same,baseline respiratory frequency,[4],had no effect
same,significant alteration of baseline VE,[9],Neither
"CNCC/C=C/c1cccnc1 [Rivanicline, (E)-N-Methyl-4-(3-pyridinyl)-3-butene-1-amine]",baseline minute ventilation,[2],98.4±3.6 % of control
same,baseline respiratory amplitude,[3],without marked effects
same,baseline respiratory frequency,[3],increased baseline respiratory frequency
same,reversal of DAMGO-induced respiratory depression (frequency and amplitude),[3],clear reversal
"C(#Cc1cncc(OC[C@@H]2CCN2)c1)c1ccccc1 [VMY-2-95, 3-[(2S)-2-Azetidinylmethoxy]-5-(2-phenylethynyl)-pyridine]",significant alteration of baseline VE,[9],Neither
same,penetration of the blood-brain barrier,[10],better penetration of the blood-brain barrier
"CN1[C@@H](CC(=O)c2ccccc2)CCC[C@H]1C[C@H](O)c1ccccc1 [lobeline, 2-((2R,6S)-6-((S)-2-Hydroxy-2-phenylethyl)-1-methylpiperidin-2-yl)-1-phenylethanone]",VE,[2]; lobeline 3 mg/kg iv alone,116.2±8.7 % of control
same,VE,[2]; lobeline 6 mg/kg ip alone,did not affect VE
same,loss of righting reflex,[11],22.4 ± 7.3 min
same,"nocifensive response, phase II",[7]; lobeline 3 mg/kg iv alone,"tended to decrease the nocifensive response in the phase II, but the difference is not significant"
same,"nocifensive response, phase I","[7]; lobeline 3 mg/kg iv alone, formalin 30 min post lobeline",decreased nocifensive response
CN1CCCC1c1cccnc1 (centres unmarked) [nicotine],baseline fR,[3],caused an increase of baseline fR
same,concentrations at which baseline fR is increased,[3],above 200 nM
same,reversal of DAMGO-induced respiratory depression (decrease in fR and burst area),[3],clear reversal
same,significant alteration of baseline VE,[9],Neither
CC(C)c1cccc(C(C)C)c1O [propofol],duration of propofol respiratory depression,[5]; propofol 30 mg/kg ip,over 30 minutes
same,onset of propofol respiratory depression,[5]; propofol 30 mg/kg ip,≤ 5 min
same,respiratory depression by propofol,[5]; propofol 30 mg/kg ip with saline,marked depression of respiratory frequency and amplitude
"OCCCCC#Cc1cncc(OC[C@@H]2CCN2)c1 [sazetidine-A, 6-[5-[(2S)-2-Azetidinylmethoxy]-3-pyridinyl]-5-hexyn-1-ol]",significant alteration of baseline VE,[9],Neither
same,agonist activity,[12],full agonist activity
same,agonist activity,[13],nearly no agonist activity
dihydro-beta-erythroidine [DHβE],fR in the presence of the antagonist,[3],fR was slower
same,reversal of A85380 (25 nM) effects by antagonist,[4]; DHβE 200 nM subsequent bath application,reversed
same,significant alteration of baseline VE,[9],Neither
